The results in this text go back to patent US9181223B2, “2-aminopyrimidin-6-ones and analogs exhibiting anti-cancer and anti-proliferative activities” (Deciphera Pharmaceuticals, LLC, priority 2013, dated 2015).

In assay [1] the test system is osteoclast precursors. Briefly: Osteoclast tartrate-resistant acid phosphatase assay. The class given is cell-based. Conditions: tartrate-resistant acid phosphatase activity, RANKL and M-CSF, 7-14 days. The method, then: Osteoclast Tartrate-Resistant Acid Phosphatase Assay
A serial dilution of test compound was dispensed into a 384-well black clear bottom plate (Nalge Nunc International, Rochester, N.Y.). Compound was diluted by the addition of DMEM media supplemented with 10% characterized fetal bovine serum (Invitrogen, Carlsbad, Calif.). Diluted compound was transferred to a 384-well black clear bottom plate. Two-thousand five hundred osteoclast precursors (Lonza, Walkersville, Md.) were added per well in growth media containing Receptor Activator of Nuclear Factor Kappa-beta ligand (RANKL) and M-CSF (R&D Systems, Minneapolis, Minn.). Plates were incubated for 7-14 days at 37 degrees Celsius, 5% CO2, and 95% humidity to allow differentiation of osteoclast precursors. At the end of the incubation period, 10 μL of supernatant from each well was transferred to a clear 384-well plate. Tartrate-resistant acid phosphatase activity in the supernatant samples was determined using an acid phosphatase assay kit (Sigma, St. Louis, Mo.). Absorbance was measured at 550 nm using a plate reader. Data was analyzed using Prism software (Graphpad, San Diego, Calif.) to calculate IC50 values.

Assay [2] has as its target T1, unphosphorylated PDGFRβ kinase (uPDGFRβ, Seq. ID No. 3) (Homo sapiens, UniProt P09619).
T1 construct: purchased DeCode
Briefly: uPDGFRβ kinase assay (ADP production coupled to pyruvate kinase/lactate dehydrogenase). It is filed as biochemical. Conditions: enzymatic assay, ATP 500 μM. The method, then: Unphosphorylated […]β) Kinase (Seq. ID No. 3) Assay Activity of unphosphorylated PDGFRβ kinase ([…] No. 3) was determined by following the production of ADP from the kinase reaction with ATP and poly E4Y as substrates through coupling with the pyruvate kinase/lactate dehydrogenase system (e.g., Schindler et al. Science (2000) 289: 1938-1942). In this assay, the oxidation of NADH (thus the decrease at A340 nm) was continuously monitored spectrophometrically. The reaction mixture (100 μL) contained PDGFRβ (DeCode, 15.7 nM), polyE4Y (2.5 mg/mL), MgCl2 (10 mM), pyruvate kinase (4 units), lactate dehydrogenase (0.7 units), phosphoenol pyruvate (1 mM) and NADH (0.28 mM) and ATP (500 μM) in a 90 mM Tris buffer containing 0.2% octyl-glucoside and 1% DMSO, at pH 7.5. The inhibition reaction was started by mixing serial diluted test compound with the above reaction mixture. The absorption at 340 nm was monitored continuously for 4 h at 30° C. on a Polarstar Optima or Synergy 2 plate reader. The reaction rate was calculated using the 1.5 to 2.5 h time frame. Percent inhibition was obtained by comparison of reaction rate with that of a control (i.e. with no test compound). IC50 values were calculated from a series of percent inhibition values determined at a range of inhibitor concentrations using software routines as implemented in the GraphPad Prism software package.

Assay [3] deals with T2, unphosphorylated c-KIT kinase (uKIT, Seq. ID no. 2) (Homo sapiens, UniProt P10721).
T2 construct: uKit with N-terminal GST fusion used for screening
T2 sequence (P10721 with tags, fused parts or gaps): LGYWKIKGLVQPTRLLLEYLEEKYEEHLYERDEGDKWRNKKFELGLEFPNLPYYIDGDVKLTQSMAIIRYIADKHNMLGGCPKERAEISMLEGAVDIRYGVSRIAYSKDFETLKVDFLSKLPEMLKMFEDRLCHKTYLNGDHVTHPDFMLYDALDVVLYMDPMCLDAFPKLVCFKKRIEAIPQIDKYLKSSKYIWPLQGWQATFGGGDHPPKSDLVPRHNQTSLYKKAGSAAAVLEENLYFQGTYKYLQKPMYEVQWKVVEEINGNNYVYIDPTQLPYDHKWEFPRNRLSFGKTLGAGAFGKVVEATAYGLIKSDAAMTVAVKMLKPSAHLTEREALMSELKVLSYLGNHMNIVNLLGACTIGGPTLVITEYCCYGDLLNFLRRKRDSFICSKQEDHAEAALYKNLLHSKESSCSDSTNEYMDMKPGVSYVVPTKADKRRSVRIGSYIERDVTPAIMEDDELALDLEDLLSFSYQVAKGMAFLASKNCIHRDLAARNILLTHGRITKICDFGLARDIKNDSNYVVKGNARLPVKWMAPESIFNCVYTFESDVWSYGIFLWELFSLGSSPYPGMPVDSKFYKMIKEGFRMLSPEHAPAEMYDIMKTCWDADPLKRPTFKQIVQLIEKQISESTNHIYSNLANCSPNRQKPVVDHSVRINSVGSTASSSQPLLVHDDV
Briefly: uKit kinase assay (ADP production coupled to pyruvate kinase/lactate dehydrogenase). It is filed as biochemical. The note with it: read-out: uKIT. As for the experimental part: In this assay, the oxidation of NADH (thus the decrease at A340 nm) was continuously monitored spectrophometrically. […] The inhibition reaction was started by mixing serial diluted test compound with the above reaction mixture. The absorption at 340 nm was monitored continuously for 4 hours at 30° C. on Synergy 2 plate reader (BioTech).

Like-named read-outs stand apart in the source and are kept apart here. Where only a bound is given, the exact number is not on record here.

T1 sequence (P09619 557-1106): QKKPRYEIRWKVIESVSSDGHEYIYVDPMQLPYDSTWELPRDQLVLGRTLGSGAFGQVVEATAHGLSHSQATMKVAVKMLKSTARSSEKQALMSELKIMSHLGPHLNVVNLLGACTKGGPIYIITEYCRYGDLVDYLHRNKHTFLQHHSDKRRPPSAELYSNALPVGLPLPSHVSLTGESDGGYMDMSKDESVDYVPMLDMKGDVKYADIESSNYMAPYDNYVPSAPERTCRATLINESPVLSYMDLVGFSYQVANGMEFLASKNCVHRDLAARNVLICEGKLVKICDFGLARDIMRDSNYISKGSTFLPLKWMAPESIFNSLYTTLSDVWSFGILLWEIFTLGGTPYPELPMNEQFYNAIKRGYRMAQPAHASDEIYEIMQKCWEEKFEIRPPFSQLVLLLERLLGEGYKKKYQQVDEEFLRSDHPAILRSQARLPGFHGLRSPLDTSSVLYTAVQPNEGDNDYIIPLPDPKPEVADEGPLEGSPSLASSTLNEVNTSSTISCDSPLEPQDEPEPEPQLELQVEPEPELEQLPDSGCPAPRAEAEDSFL

Regarding `CCNc1ncc(-c2ccc(Oc3ccnc(-c4cnn(C)c4)c3)c(C)n2)c(=O)[nH]1` [Example 1, 2-(ethylamino)-5-(6-methyl-5-((2-(1-methyl-1H-pyrazol-4-yl)pyridin-4-yl)oxy)pyridin-2-yl)pyrimidin-4(3H)-one], the IC50 was 10 to 100 nM in assay [1]; > 1000 nM in assay [2]; > 1000 nM in assay [3] (enzymatic assay, ATP 2000 μM).

For the molecule `Cc1nc(-c2cnc(N(C)C)[nH]c2=O)ccc1Oc1ccnc(-c2cnn(C)c2)c1` [Example 2, 2-(dimethylamino)-5-(6-methyl-5-((2-(1-methyl-1H-pyrazol-4-yl)pyridin-4-yl)oxy)pyridin-2-yl)pyrimidin-4(3H)-one], the IC50 is 10 to 100 nM in assay [1]; > 1000 nM in assay [2]; > 1000 nM in assay [3] (enzymatic assay, ATP 2000 μM).

Take `Cc1nc(-c2cnc(NC(C)C)[nH]c2=O)ccc1Oc1ccnc(-c2cnn(C)c2)c1` [Example 3, 2-(isopropylamino)-5-(6-methyl-5-((2-(1-methyl-1H-pyrazol-4-yl)pyridin-4-yl)oxy)pyridin-2-yl)pyrimidin-4(3H)-one]: the IC50 in assay [1] is 10 to 100 nM; in assay [2] it was > 1000 nM; in assay [3] (enzymatic assay, ATP 2000 μM) it was 100 to 1000 nM.

As for `CCNc1ncc(-c2ccc(Oc3ccnc(-c4ccc(C)nc4)c3)c(C)n2)c(=O)[nH]1` [Example 4, 2-(ethylamino)-5-(6-methyl-5-((6′-methyl-[2,3′-bipyridin]-4-yl)oxy)pyridin-2-yl)pyrimidin-4(3H)-one], the IC50 in assay [1] is 100 to 1000 nM; in assay [2], > 1000 nM; in assay [3] (enzymatic assay, ATP 2000 μM) it was > 1000 nM.

In the case of `CCNc1ncc(-c2ccc(Oc3ccnc(-n4cnc(C)c4)c3)c(C)n2)c(=O)[nH]1` [Example 5, 2-(ethylamino)-5-(6-methyl-5-((2-(4-methyl-1H-imidazol-1-yl)pyridin-4-yl)oxy)pyridin-2-yl)pyrimidin-4(3H)-one], the IC50 was 100 to 1000 nM in assay [1]; > 1000 nM in assay [2]; > 1000 nM in assay [3] (enzymatic assay, ATP 2000 μM).

Consider `CNc1ncc(-c2ccc(Oc3ccnc(-c4cnn(C)c4)c3)c(C)n2)c(=O)[nH]1` [Example 7, 5-(6-methyl-5-((2-(1-methyl-1H-pyrazol-4-yl)pyridin-4-yl)oxy)pyridin-2-yl)-2-(methylamino)pyrimidin-4(3H)-one], for which the IC50 in assay [1] was 100 to 1000 nM; in assay [2], > 1000 nM; in assay [3] (enzymatic assay, ATP 2000 μM) it was 100 to 1000 nM.

On to `CCNc1ncc(-c2ccc(Oc3ccnc(-c4cnn(C)c4)c3)cn2)c(=O)[nH]1` [Example 8, 2-(ethylamino)-5-(5-((2-(1-methyl-1H-pyrazol-4-yl)pyridin-4-yl)oxy)pyridin-2-yl)pyrimidin-4(3H)-one], for which the IC50 in assay [1] was 100 to 1000 nM; in assay [2], > 1000 nM; in assay [3] (enzymatic assay, ATP 2000 μM) it was 100 to 1000 nM.

In the case of `Cc1nc(-c2cnc(N3CCCC3)[nH]c2=O)ccc1Oc1ccnc(-c2cnn(C)c2)c1` [Example 9, 5-(6-methyl-5-((2-(1-methyl-1H-pyrazol-4-yl)pyridin-4-yl)oxy)pyridin-2-yl)-2-(pyrrolidin-1-yl)pyrimidin-4(3H)-one], the results for the IC50 in assay [1], in assay [2] and in assay [3] were 10 to 100 nM, > 1000 nM and > 1000 nM, respectively.

With `CNC(=O)c1cc(Oc2ccc(-c3cnc(NC(C)C)[nH]c3=O)nc2)ccn1` [Example 11, 4-((6-(2-(isopropylamino)-6-oxo-1,6-dihydropyrimidin-5-yl)pyridin-3-yl)oxy)-N-methylpicolinamide], the IC50 in assay [1] was 10 to 100 nM; in assay [2] it was > 1000 nM; in assay [3] (enzymatic assay, ATP 2000 μM), > 1000 nM.

In the case of `Cc1nc(-c2cnc(N3CCOCC3)[nH]c2=O)ccc1Oc1ccnc(-c2cnn(C)c2)c1` [Example 12, 5-(6-methyl-5-((2-(1-methyl-1H-pyrazol-4-yl)pyridin-4-yl)oxy)pyridin-2-yl)-2-morpholinopyrimidin-4(3H)-one], the IC50 in assay [1] is 10 to 100 nM; in assay [2], > 1000 nM; in assay [3] (enzymatic assay, ATP 2000 μM) it was > 1000 nM.

Consider `Cc1nc(-c2cnc(N3CCCCC3)[nH]c2=O)ccc1Oc1ccnc(-c2cnn(C)c2)c1` [Example 13, 5-(6-methyl-5-((2-(1-methyl-1H-pyrazol-4-yl)pyridin-4-yl)oxy)pyridin-2-yl)-2-(piperidin-1-yl)pyrimidin-4(3H)-one], for which the IC50 was 10 to 100 nM in assay [1]; > 1000 nM in assay [2]; > 1000 nM in assay [3] (enzymatic assay, ATP 2000 μM).

Take `Cc1nc(-c2cnc(NC3CC3)[nH]c2=O)ccc1Oc1ccnc(-c2cnn(C)c2)c1` [Example 14, 2-(cyclopropylamino)-5-(6-methyl-5-((2-(1-methyl-1H-pyrazol-4-yl)pyridin-4-yl)oxy)pyridin-2-yl)pyrimidin-4(3H)-one]: the IC50 in assay [1] was 10 to 100 nM; in assay [2], > 1000 nM; in assay [3] (enzymatic assay, ATP 2000 μM) it was > 1000 nM.

Regarding `Cc1nc(-c2cnc(NC3CCCC3)[nH]c2=O)ccc1Oc1ccnc(-c2cnn(C)c2)c1` [Example 15, 2-(cyclopentylamino)-5-(6-methyl-5-((2-(1-methyl-1H-pyrazol-4-yl)pyridin-4-yl)oxy)pyridin-2-yl)pyrimidin-4(3H)-one], the IC50 in assay [1] was < 10 nM; in assay [2] it was 100 to 1000 nM; in assay [3] (enzymatic assay, ATP 2000 μM), 100 to 1000 nM.

For `Cc1nc(-c2cnc(NC3CC3)n(C)c2=O)ccc1Oc1ccnc(-c2cnn(C)c2)c1` [Example 17, 2-(cyclopropylamino)-3-methyl-5-(6-methyl-5-((2-(1-methyl-1H-pyrazol-4-yl)pyridin-4-yl)oxy)pyridin-2-yl)pyrimidin-4(3H)-one], the IC50 was < 10 nM in assay [1]; > 1000 nM in assay [2]; > 1000 nM in assay [3] (enzymatic assay, ATP 2000 μM).

`CC(=O)Nc1cc(Oc2ccc(-c3cnc(NC(C)C)[nH]c3=O)nc2C)ccn1` [Example 19, N-(4-((6-(2-(isopropylamino)-6-oxo-1,6-dihydropyrimidin-5-yl)-2-methylpyridin-3-yl)oxy)pyridin-2-yl)acetamide]: the IC50 in assay [1] was in the range of 10 to 100 nM; in assay [2], 100 to 1000 nM; in assay [3] (enzymatic assay, ATP 2000 μM), 100 to 1000 nM.

`Cc1cc(-c2cnc(N3CCCC3)[nH]c2=O)ncc1Oc1ccnc(-c2cnn(C)c2)c1` [Example 20, 5-(4-methyl-5-((2-(1-methyl-1H-pyrazol-4-yl)pyridin-4-yl)oxy)pyridin-2-yl)-2-(pyrrolidin-1-yl)pyrimidin-4(3H)-one]: the IC50 in assay [1] is < 10 nM; in assay [2], 100 to 1000 nM; in assay [3] (enzymatic assay, ATP 2000 μM), 100 to 1000 nM.

As to `CCn1cc(-c2cc(Oc3ccc(-c4cnc(NC(C)C)[nH]c4=O)nc3C)ccn2)cn1` [Example 21, 5-(5-((2-(1-ethyl-1H-pyrazol-4-yl)pyridin-4-yl)oxy)-6-methylpyridin-2-yl)-2-(isopropylamino)pyrimidin-4(3H)-one], the IC50 in assay [1] was 10 to 100 nM; in assay [2], > 1000 nM; in assay [3] (enzymatic assay, ATP 2000 μM) it was > 1000 nM.

Turning to `Cc1nc(-c2cnc(NC3CCOCC3)[nH]c2=O)ccc1Oc1ccnc(-c2cnn(C)c2)c1` [Example 27, 5-(6-methyl-5-((2-(1-methyl-1H-pyrazol-4-yl)pyridin-4-yl)oxy)pyridin-2-yl)-2-((tetrahydro-2H-pyran-4-yl)amino)pyrimidin-4(3H)-one], the IC50 in assay [1] was 10 to 100 nM; in assay [2] it was > 1000 nM; in assay [3] (enzymatic assay, ATP 2000 μM), > 1000 nM.
